Source: PMC11374673, “Discovery of isoquinoline sulfonamides as allosteric gyrase inhibitors with activity against fluoroquinolone-resistant bacteria” (Nature Chemistry, 2024)
In brackets after ≈: the same amount, converted by molar mass. Several values for one entry are separate records, joined by “and”; a condition that tells them apart may be missing. Identical values can stand only once. Like-named read-outs stand apart in the source and are kept apart here.

What was measured:
E. coli W3110 = experiment: MIC by broth microdilution; assay type: cell-based, Escherichia coli; settings: for MIC: broth microdilution, read-out: MIC E. coli W3110
Procedure, shortened: (§1)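 Broth microdilution in CAMHB: twofold compound series inoculated with 100-fold-diluted bacteria from exponential growth (OD600 0.5, 37 °C); kanamycin 50 µg ml^−1 added for Keio collection strains. Overnight incubation, 37 °C, 600 r.p.m. shaking.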

K. pneumoniae ATCC 29665 = experiment: MIC by broth microdilution; assay type: cell-based, Klebsiella pneumoniae; settings: Klebsiella pneumoniae, ATCC29665, broth microdilution; read-out: MIC K. pneumoniae ATCC 29665
Procedure, shortened: as §1

HEK293T = experiment: Cytotoxicity assay (MTT); assay type: cell-based, human; settings: for MTT data (raw readout): HEK293T; for IC50: 24 h, MTT
Method: (§2) HepG2 (ATCC HB-8065) and HEK293T (ATCC CRL-3216) cell lines were cultured at 37 °C and 7% CO2 in Dulbecco’s modified Eagle medium (Sigma-Aldrich, D6546) with GlutaMax, penicillin (100 µg ml^−1), streptomycin (100 µg ml^−1) and 10% fetal calf serum. Cells were passaged twice a week by first detaching using 0.05% trypsin in phosphate-buffered saline (PBS) and then diluting to appropriate confluence. Compound cytotoxicity was evaluated using the standard (3-(4,5-dimethylthiazol-2-yl)-2,5-diphenyltetrazolium bromide (MTT) assay protocol (MTT assay protocol for cell viability and proliferation, Merck) with slight changes. HepG2 and HEK293T cells were seeded at a density of 1.5 × 10^4 cells per well in a clear 96-well tissue culture treated plate in a final volume of 100 µl in Dulbecco’s modified Eagle medium, supplemented with fetal bovine serum (1%), GlutaMax and penicillin/streptomycin. Cells were incubated for 24 h at 37 °C, 7% CO2 to allow cells to attach to the plates. […] Incubation was done for 24 h at 37 °C, 7% CO2. After the incubation, MTT was added to each well at a final concentration of 0.40 mg ml^−1. The plates were then incubated for 2 h at 37 °C, 7% CO2. Medium was carefully removed via suction, and purple formazan crystals were resuspended in 100 µl DMSO. Absorbance was read at 570 nm using a Clariostar plate reader with MARS (V4.20). The data were then analysed with GraphPad Prism software. IC50 values were calculated using non-linear fitted curve with variable slope settings, with values adjusted for background (plotted absorbance (ABS)sample = (ABSsample – ABSbackground) / (ABSvehicle – ABSbackground)). Technical triplicates for each condition were used, along with biological duplicates.

HepG2 = experiment: Cytotoxicity assay (MTT); assay type: cell-based, human
Method: as §2

## O=S(=O)(NCCNCc1ccc(-c2ccc(F)cc2)cc1)c1cccc2cnccc12 [Compound 59]
E. coli W3110; Escherichia coli, W3110, WT
  MIC: 3.1 µM (≈ 1.35 µg/mL)
E. coli W3110; WT
  MIC: 3.125 µM (≈ 1.36 µg/mL)
E. coli W3110; relative to parent compound
  antimicrobial activity: twofold increase in potency
K. pneumoniae ATCC 29665
  MIC: 6.25 µM (≈ 2.72 µg/mL)
HEK293T; 0.023 uM, experiment n = 1, technical triplicates
  MTT data (raw readout): 1.333 and 1.279 and 1.355
HEK293T; 0.023 uM, experiment n = 2, technical triplicates
  MTT data (raw readout): 1.390 and 1.481 and 1.407
HEK293T; 0.068 uM, experiment n = 1, technical triplicates
  MTT data (raw readout): 1.383 and 1.359
HEK293T; 0.068 uM, experiment n = 2, technical triplicates
  MTT data (raw readout): 1.383 and 1.292 and 1.538
HEK293T; 0.21 uM, experiment n = 1, technical triplicates
  MTT data (raw readout): 1.318 and 1.351 and 1.256
HEK293T; 0.21 uM, experiment n = 2, technical triplicates
  MTT data (raw readout): 1.291 and 1.248 and 1.339
HEK293T; 0.62 uM, experiment n = 1, technical triplicates
  MTT data (raw readout): 1.028 and 1.043 and 1.203
HEK293T; 0.62 uM, experiment n = 2, technical triplicates
  MTT data (raw readout): 1.142 and 1.303 and 1.183
HEK293T; 1.85 uM, experiment n = 1, technical triplicates
  MTT data (raw readout): 0.845 and 0.882 and 0.691
HEK293T; 1.85 uM, experiment n = 2, technical triplicates
  MTT data (raw readout): 0.871 and 0.885 and 0.773
HEK293T; 5.6 uM, experiment n = 1, technical triplicates
  MTT data (raw readout): 0.197 and 0.226 and 0.189
HEK293T; 5.6 uM, experiment n = 2, technical triplicates
  MTT data (raw readout): 0.227 and 0.205 and 0.278
HEK293T; 16.7 uM, experiment n = 1, technical triplicates
  MTT data (raw readout): 0.068 and 0.048 and 0.059
HEK293T; 50 uM, experiment n = 1, technical triplicates
  MTT data (raw readout): 0.036 and 0.035 and 0.032
HEK293T; 50 uM, experiment n = 2, technical triplicates
  MTT data (raw readout): 0.032 and 0.034 and 0.028
HEK293T; Homo sapiens, HEK-293T
  IC50: 1700 nM
HEK293T
  IC50: 2600 nM
HepG2; HepG2, 0.023 uM, experiment n = 1, technical triplicates
  MTT data (raw readout): 1.000 and 0.992 and 0.989
HepG2; HepG2, 0.023 uM, experiment n = 2, technical triplicates
  MTT data (raw readout): 0.854 and 0.789 and 0.774
HepG2; HepG2, 0.068 uM, experiment n = 1, technical triplicates
  MTT data (raw readout): 0.940 and 0.990 and 0.945
HepG2; HepG2, 0.068 uM, experiment n = 2, technical triplicates
  MTT data (raw readout): 0.876 and 0.808 and 0.777
HepG2; HepG2, 0.21 uM, experiment n = 1, technical triplicates
  MTT data (raw readout): 0.977 and 1.029 and 0.973
HepG2; HepG2, 0.21 uM, experiment n = 2, technical triplicates
  MTT data (raw readout): 0.822 and 0.816 and 0.771
HepG2; HepG2, 0.62 uM, experiment n = 1, technical triplicates
  MTT data (raw readout): 0.952 and 1.030 and 0.967
HepG2; HepG2, 0.62 uM, experiment n = 2, technical triplicates
  MTT data (raw readout): 0.836 and 0.820 and 0.813
HepG2; HepG2, 1.85 uM, experiment n = 1, technical triplicates
  MTT data (raw readout): 0.913 and 0.914 and 0.948
HepG2; HepG2, 1.85 uM, experiment n = 2, technical triplicates
  MTT data (raw readout): 0.795 and 0.749 and 0.743
HepG2; Homo sapiens, HepG2, 24 h, MTT, 24 h
  IC50: 1700 nM
